Results on 19 compounds are retold here after PubChem BioAssay AID328 (DTP/NCI, 2004).

The test system of the assay is BDF1 mice, P388 leukemia ip, median survival T/C. In words: NCI In Vivo Anticancer Drug Screen. Data for tumor model P388 Leukemia (intraperitoneal) in B6D2F1 (BDF1) mice. The conditions noted are these: endpoint: median survival time, higher = longer survival. The procedure, abridged: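 In tumour-bearing mice, survival after compound treatment is set against the vehicle group and given as a quotient.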

Where [1] appears, read: dose: 100.0 mg/kg/injection, schedule: Q01DX009 (ip), vehicle: saline with Tween-80.
Where [2] appears, read: dose: 200.0 mg/kg/injection, schedule: Q01DX009 (ip), vehicle: saline with Tween-80.
Where [3] appears, read: dose: 50.0 mg/kg/injection, schedule: Q01DX009 (ip), vehicle: saline with Tween-80.
Where [4] appears, read: dose: 100.0 mg/kg/injection, schedule: Q04DX003 (ip), vehicle: saline.
[5] abbreviates: dose: 200.0 mg/kg/injection, schedule: Q04DX003 (ip), vehicle: saline.
Where [6] appears, read: dose: 400.0 mg/kg/injection, schedule: Q04DX003 (ip), vehicle: saline.
The mark [7] stands for this setting: dose: 50.0 mg/kg/injection, schedule: Q01DX009 (ip), vehicle: Klucel (hydroxypropylcellulose) (HPC).
The mark [8] stands for this setting: dose: 100.0 mg/kg/injection, schedule: Q01DX009 (ip), vehicle: Klucel (hydroxypropylcellulose) (HPC).
Where [9] appears, read: dose: 200.0 mg/kg/injection, schedule: Q01DX009 (ip), vehicle: Klucel (hydroxypropylcellulose) (HPC).
Where [10] appears, read: dose: 400.0 mg/kg/injection, schedule: Q01DX009 (ip), vehicle: Klucel (hydroxypropylcellulose) (HPC).
The mark [11] stands for this setting: dose: 50.0 mg/kg/injection, schedule: Q01DX009 (ip), vehicle: saline.
Setting [12] is: dose: 100.0 mg/kg/injection, schedule: Q01DX009 (ip), vehicle: saline.
The mark [13] stands for this setting: dose: 100.0 mg/kg/injection, schedule: Q04DX003 (ip), vehicle: Klucel (hydroxypropylcellulose) (HPC).
[14] abbreviates: dose: 200.0 mg/kg/injection, schedule: Q04DX003 (ip), vehicle: Klucel (hydroxypropylcellulose) (HPC).
[15] abbreviates: dose: 400.0 mg/kg/injection, schedule: Q04DX003 (ip), vehicle: Klucel (hydroxypropylcellulose) (HPC).

Molecules are shown by their SMILES. Several values for one entry are separate records, joined by “and”; a condition that tells them apart may be missing. Equal values may be shown once. Inconclusive results and toxic doses are left out.

On to `Oc1ccccc1OB(Oc1ccccc1O)N(CCCl)CCCl`, for which the T/C by setting is: (dose: 8.1 mg/kg/injection, schedule: Q01DX009 (ip), vehicle: Klucel (hydroxypropylcellulose) (HPC)) 122 % of control; (dose: 16.5 mg/kg/injection, schedule: Q04DX003 (ip), vehicle: saline) 86 % of control; (dose: 18.5 mg/kg/injection, schedule: Q01DX009 (ip), vehicle: Klucel (hydroxypropylcellulose) (HPC)) 170 % of control; (dose: 24.75 mg/kg/injection, schedule: Q04DX003 (ip), vehicle: saline) 150 % of control; (dose: 28.12 mg/kg/injection, schedule: Q01DX009 (ip), vehicle: Klucel (hydroxypropylcellulose) (HPC)) 190 % of control and 195 % of control; (dose: 40.0 mg/kg/injection, schedule: Q01DX009 (ip), vehicle: Klucel (hydroxypropylcellulose) (HPC)) 165 % of control. The T/C was 150 % of control (dose: 49.5 mg/kg/injection, schedule: Q04DX003 (ip), vehicle: saline) and 119 % of control (dose: 50.0 mg/kg/injection, schedule: Q04DX003 (ip), vehicle: saline).
For `COc1ccc(C2CCc3cc4c(cc3C2=O)OCO4)cc1OC` (stereo not given), the T/C runs as follows: under setting [1], 100 % of control; (dose: 100.0 mg/kg/injection, schedule: Q04DX003 (ip), vehicle: saline with Tween-80) 90 % of control; under setting [2], 95 % of control; (dose: 200.0 mg/kg/injection, schedule: Q04DX003 (ip), vehicle: saline with Tween-80) 100 % of control; (dose: 400.0 mg/kg/injection, schedule: Q01DX009 (ip), vehicle: saline with Tween-80) 100 % of control; (dose: 400.0 mg/kg/injection, schedule: Q04DX003 (ip), vehicle: saline with Tween-80) 100 % of control.
In the case of `Nc1nc2nsnc2nc1N`, the T/C is 111 % of control (dose: 1.56 mg/kg/injection, schedule: Q01DX009 (ip), vehicle: water); 111 % of control (dose: 3.12 mg/kg/injection, schedule: Q01DX009 (ip), vehicle: water); 100 % of control (dose: 3.12 mg/kg/injection, schedule: Q04DX003 (ip), vehicle: water); 100 % of control (dose: 6.25 mg/kg/injection, schedule: Q01DX009 (ip), vehicle: water); 110 % of control (dose: 6.25 mg/kg/injection, schedule: Q04DX003 (ip), vehicle: water); 100 % of control (dose: 12.5 mg/kg/injection, schedule: Q01DX009 (ip), vehicle: water). Also, the T/C was 100 % of control (dose: 12.5 mg/kg/injection, schedule: Q04DX003 (ip), vehicle: water); 102 % of control (dose: 25.0 mg/kg/injection, schedule: Q01DX009 (ip), vehicle: water); 110 % of control (dose: 25.0 mg/kg/injection, schedule: Q04DX003 (ip), vehicle: water); 111 % of control (dose: 50.0 mg/kg/injection, schedule: Q01DX009 (ip), vehicle: water); 115 % of control (dose: 50.0 mg/kg/injection, schedule: Q04DX003 (ip), vehicle: water); 118 % of control (dose: 100.0 mg/kg/injection, schedule: Q01DX009 (ip), vehicle: water).
Take `CN(C)N=Nc1ccc(-c2ccccc2)cc1`: the T/C (dose: 25.0 mg/kg/injection, schedule: Q01DX009 (ip), vehicle: saline with Tween-80) is 99 % of control.
As to `CCOC(=O)c1nnc(C)[nH]c1=O`, the T/C under setting [3] was 103 % of control, the T/C under setting [1] is 103 % of control and the T/C under setting [2] was 98 % of control.
For `COC(=O)c1cc(=O)nc(N/N=C/c2ccccc2)s1`, the T/C was 109 % of control (dose: 50.0 mg/kg/injection, schedule: Q01DX005 (ip), vehicle: saline with Tween-80); 110 % of control (dose: 100.0 mg/kg/injection, schedule: Q01DX005 (ip), vehicle: saline with Tween-80); 109 % of control (dose: 200.0 mg/kg/injection, schedule: Q01DX005 (ip), vehicle: saline with Tween-80).
`CCc1nnc2n1N=C(c1ccc(-c3ccccc3)cc1)CS2`: the T/C by setting is: under setting [3], 90 % of control; under setting [1], 89 % of control; under setting [2], 90 % of control.
For `N#CC(Nc1ccccc1C(N)=O)c1ccccc1` (stereo not given), the T/C reads like this: under setting [4], 109 % of control; under setting [5], 104 % of control; under setting [6], 95 % of control.
Regarding `COC(=O)C(c1ccccc1)C(CC(=O)c1ccccc1)c1ccccc1` (stereo not given), the T/C by setting is: under setting [7], 86 % of control; under setting [8], 89 % of control and 99 % of control; under setting [9], 92 % of control and 101 % of control; under setting [10], 97 % of control.
Regarding `O=[N+]([O-])c1ccc(-c2nc(Cl)c3c(n2)CCCC3)o1`, the T/C was 95 % of control under setting [3], 98 % of control under setting [1] and 97 % of control under setting [2].
For `O=C(O)COCC(F)(F)C(F)(F)C(F)(F)COCC(=O)O`, the T/C is, setting by setting: under setting [11], 90 % of control; under setting [12], 110 % of control; under setting [4], 100 % of control; (dose: 200.0 mg/kg/injection, schedule: Q01DX009 (ip), vehicle: saline) 110 % of control; under setting [5], 122 % of control.
With `Nc1ccc(Cl)c(Cl)c1`, the T/C under setting [3] is 98 % of control; the T/C under setting [11] is 106 % of control; the T/C under setting [1] is 104 % of control; the T/C under setting [12] was 118 % of control; the T/C under setting [2] was 104 % of control.
Turning to `CC(/C=N\N=C(N)N)=N/N=C(N)N`, the T/C by setting is: (dose: 5.0 mg/kg/injection, schedule: Q01DX010 (ip), vehicle: saline) 90 % of control; (dose: 10.0 mg/kg/injection, schedule: Q01DX010 (ip), vehicle: saline) 90 % of control and 100 % of control; (dose: 20.0 mg/kg/injection, schedule: Q01DX010 (ip), vehicle: saline) 100 % of control; (dose: 44.0 mg/kg/injection, schedule: Q01DX009 (ip), vehicle: saline) 150 % of control; under setting [6], 95 % of control.
Regarding `O=C(NO)c1ccccc1`, the T/C reads like this: under setting [7], 105 % of control and 116 % of control; (dose: 50.0 mg/kg/injection, schedule: Q04DX003 (ip), vehicle: Klucel (hydroxypropylcellulose) (HPC)) 103 % of control and 116 % of control; under setting [8], 91 % of control and 104 % of control and 105 % of control; under setting [13], 106 % of control and 108 % of control and 113 % of control; under setting [9], 107 % of control and 109 % of control; under setting [14], 104 % of control (2×) and 108 % of control. In addition, the T/C under setting [15] is 100 % of control and 116 % of control.
Consider `BrC1CCCCCC(Br)C12OCCO2` (stereo not given), for which the T/C is 100 % of control under setting [13], 95 % of control under setting [14] and 100 % of control under setting [15].
For `COc1cc2c(cc1OC)[C@]13C[C@@H](OC)CC=C1CCN3CCC2`, the T/C (dose: 5.0 mg/kg/injection, schedule: Q01DX009 (ip), vehicle: alcohol) is 100 % of control; the T/C (dose: 10.0 mg/kg/injection, schedule: Q01DX009 (ip), vehicle: alcohol) was 95 % of control; the T/C (dose: 20.0 mg/kg/injection, schedule: Q01DX009 (ip), vehicle: alcohol) was 90 % of control; the T/C (dose: 40.0 mg/kg/injection, schedule: Q01DX009 (ip), vehicle: alcohol) was 90 % of control.
On to `O=C(c1ccccc1)N(Nc1ccccc1)c1ccccc1`, for which the T/C reads like this: under setting [8], 95 % of control; under setting [13], 100 % of control; under setting [9], 109 % of control; under setting [14], 100 % of control; under setting [10], 95 % of control; under setting [15], 100 % of control.
`CC(C)(C)NCCC(O)c1cc(C(F)(F)F)nc2c(C(F)(F)F)cccc12` (stereo not given): the T/C reads like this: under setting [3], 105 % of control; under setting [1], 104 % of control.
With `CCN(c1ccccc1)c1cc2c(cc1[N+](=O)[O-])no[n+]2[O-]`, the T/C is, setting by setting: (dose: 30.0 mg/kg/injection, schedule: Q01DX009 (ip), vehicle: saline with Tween-80) 123 % of control; (dose: 60.0 mg/kg/injection, schedule: Q01DX009 (ip), vehicle: saline with Tween-80) 113 % of control.
